Like-named read-outs stand apart in the source and are kept apart here.
Columns and labels:
[1] = system: Green Peach Aphid (GPA) (Myzus persicae) (MYZUPE); experiment: Bioassay for Green Peach Aphid (GPA), foliar spray on cabbage seedlings; type: in vivo; details: 72 h, read-out: GPA 200 ppm, % Control (or Mortality) rating
Text: Bioassay for Green Peach Aphid (GPA) (Myzus persicae) (MYZUPE)
The green peach aphid (Myzus persicae) is the most significant aphid pest of peach trees, causing decreased growth, shriveling of the leaves, and the death of various tissues. It is also hazardous because it acts as a vector for the transport of plant viruses, such as potato virus Y and potato leafroll virus to members of the nightshade/potato family Solanaceae, and various mosaic viruses to many other food crops. GPA attacks such plants as broccoli, burdock, cabbage, carrot, cauliflower, daikon, eggplant, green beans, lettuce, macadamia, papaya, peppers, sweet potatoes, tomatoes, watercress, and zucchini, among other plants GPA also attacks many ornamental crops such as carnation, chrysanthemum, flowering white cabbage, poinsettia, and roses. GPA has developed resistance to many pesticides.
Cabbage seedlings grown in 3-inch pots, with 2-3 small (3-5 cm) true leaves, were used as test substrate. The seedlings were infested with 20-50 GPA (wingless adult and nymph stages) one day prior to chemical application. Four pots with individual seedlings were used for each treatment. Test compounds (2 mg) were dissolved in 2 mL of acetone/methanol (1:1) solvent, forming stock solutions of 1000 ppm test compound. The stock solutions were diluted 5× with 0.025% Tween 20 in water to obtain the solution at 200 ppm test compound. A hand-held aspirator-type sprayer was used for spraying a solution to both sides of […] leaves until runoff. Reference plants (solvent check) were sprayed with the diluent only containing 20% by volume of acetone/methanol (1:1) solvent. Treated plants were held in a holding room for three days at approximately 25° C. and ambient relative humidity (RH) prior to grading. Evaluation was conducted by counting the number of live aphids per plant under a microscope. Percent control was measured by using Abbott's correction formula (W. S. Abbott, “A Method of Computing the Effectiveness of an Insecticide” J. Econ. Entomol. 18 (1925), pp. 265-267) as follows. Corrected % Control=100*(X−Y)/X
X=No. of live aphids on solvent check plants and
Y=No. of live aphids on treated plants
Biological Data for Green Peach Aphid (GPA) (MYZUPE) and Sweetpotato Whitefly-Crawler (WF) (BEMITA)” (see table section).
(§1) The mortality efficiency of the pesticidal compounds against GPA and WF insects was determined after treatment.

[2] = system: Sweetpotato Whitefly-Crawler (WF) (Bemisia tabaci) (BEMITA); experiment: Insecticidal test for Sweetpotato Whitefly-Crawler (WF) in foliar spray assay on cotton plants; type: in vivo; details: 216 h, read-out: WF 200 ppm, % Control (or Mortality) rating
Text: Insecticidal Test for Sweetpotato Whitefly-Crawler (WF) (Bemisia tabaci) (BEMITA) in Foliar Spray Assay
The sweetpotato whitefly (Bemisia tabaci) has been reported as a serious pest of cultivated crops world-wide. It has an extremely wide host range attacking more than 500 species of plants from 63 plant families. Weeds often serve as alternate hosts of crop pests. Direct feeding damage is caused by the piercing and sucking sap from the foliage of plants. This feeding causes weakening and early wilting of the plant and reduces the plant growth rate and yield Indirect damage results by the accumulation of honeydew produced by the whiteflies. Honeydew serves as a substrate for the growth of black sooty mold on leaves and fruit reducing photosynthesis and lessens the market value of the plant or yield. […] The sweetpotato whitefly is considered the most common and important whitefly vector of plant viruses worldwide.
Cotton plants (Gossypium hirsutum) grown in 3-inch pots, with 1 small (4-5 cm) true leaves, were used as test substrate. The plants were infested with 200-400 whitefly eggs 4-5 days prior to chemical application. Four pots with individual plants were used for each treatment. Test compounds (2 mg) were dissolved in 1 mL of acetone solvent, forming stock solutions of 2000 ppm test compound. The stock solutions were diluted 10× with 0.025% Tween 20 in water (diluents) to obtain the solution at 200 ppm test compound. A hand-held aspirator-type sprayer was used for spraying a solution to both sides of cotton leaves until runoff. Reference plants (solvent check) were sprayed with the diluent only containing 10% by volume of acetone solvent. Treated plants were held in a holding room for 9 days at approximately 25° C. and ambient relative humidity (RH) prior to grading. Evaluation was conducted by counting the number of live 3-4 nymph stage per plant under a microscope. Percent control was measured by using Abbott's correction formula (W. S. Abbott, “A Method of Computing the Effectiveness of an Insecticide” J. Econ. Entomol. 18 (1925), pp. 265-267) as follows.
Biological Data for Green Peach Aphid (GPA) (MYZUPE) and Sweetpotato Whitefly-Crawler (WF) (BEMITA)” (see table section). Corrected % Control=100*(X−Y)/X
X=No. of live nymphs on solvent check plants and
Y=No. of live nymphs on treated plants
as §1

[3] = 200 ppm foliar spray on cabbage seedlings, graded after three days, Abbott corrected % control
[4] = 200 ppm foliar spray on cotton plants, graded after 9 days, Abbott corrected % control

| Compound | mortality at 200 ppm [1, 3] [%] | mortality at 200 ppm [2, 4] [%] | mortality at 200 ppm ([1]; foliar) [%] | mortality at 200 ppm ([2]; foliar) [%] |
| --- | --- | --- | --- | --- |
| CN(C(=O)Cn1ccccc1=O)c1cn(-c2cccnc2)nc1Cl [Compound F3, N-(3-Chloro-1-(pyridin-3-yl)-1H-pyrazol-4-yl)-N-methyl-2-(2-oxopyridin-1(2H)-yl)acetamide] | 80 to 100 | 80 to 100 |  |  |
| CCN(C(=O)CN(C)C(=O)OC(C)(C)C)c1cn(-c2cccnc2)nc1Cl [Compound F4, tert-Butyl (2-((3-chloro-1-(pyridin-3-yl)-1H-pyrazol-4-yl)(ethyl)amino)-2-oxoethyl)(methyl)carbamate] |  |  | 80 to 100 | 80 to 100 |
| CCN(C(=O)CN(C)C(=O)CCC(F)(F)F)c1cn(-c2cccnc2)nc1Cl [Compound F5, N-(2-((3-Chloro-1-(pyridin-3-yl)-1H-pyrazol-4-yl)(ethyl)amino)-2-oxoethyl)-4,4,4-trifluoro-N-methylbutanamide] | 80 to 100 | 80 to 100 |  |  |
| CN(C(=O)CN1CCCC1=O)c1cn(-c2cccnc2)nc1Cl [Compound F6, N-(3-Chloro-1-(pyridin-3-yl)-1H-pyrazol-4-yl)-N-methyl-2-(2-oxopyrrolidin-1-yl)acetamide] | 80 to 100 | 80 to 100 |  |  |
| CN(C(=O)CN1CCSC1=O)c1cn(-c2cccnc2)nc1Cl [Compound F7, N-(3-Chloro-1-(pyridin-3-yl)-1H-pyrazol-4-yl)-N-methyl-2-(2-oxothiazolidin-3-yl)acetamide] | 0 to 80 | 80 to 100 |  |  |
| CCN(C(=O)CCN1CCCCC1=O)c1cn(-c2cccnc2)nc1Cl [Compound F8, N-(3-Chloro-1-(pyridin-3-yl)-1H-pyrazol-4-yl)-N-ethyl-3-(2-oxopiperidin-1-yl)propanamide] | 80 to 100 | 80 to 100 |  |  |
| CCN(C(=O)CCN(C(C)=O)C1CC1)c1cn(-c2cccnc2)nc1Cl [Compound F9, N-(3-Chloro-1-(pyridin-3-yl)-1H-pyrazol-4-yl)-3-(N-cyclopropylacetamido)-N-ethylpropanamide] | 80 to 100 | 0 to 80 |  |  |
| CCN(C(=O)CN1CCSC1=O)c1cn(-c2cccnc2)nc1Cl [Compound F10, N-(3-Chloro-1-(pyridin-3-yl)-1H-pyrazol-4-yl)-N-ethyl-2-(2-oxothiazolidin-3-yl)acetamide] | 0 to 80 | 80 to 100 |  |  |
| CCN(C(=O)C1CCN(C(=O)OC(C)(C)C)C1)c1cn(-c2cccnc2)nc1Cl (stereo not drawn) [Compound F11] | 0 to 80 | 80 to 100 |  |  |
| CCN(C(=O)CCNC(=O)CCC(F)(F)F)c1cn(-c2cccnc2)nc1Cl [Compound F12, N-(3-((3-Chloro-1-(pyridin-3-yl)-1H-pyrazol-4-yl)(ethyl)amino)-3-oxopropyl)-4,4,4-trifluorobutanamide] | 80 to 100 | 80 to 100 |  |  |
| CCN(C(=O)CCC(=O)NCc1ccc(C)o1)c1cn(-c2cccnc2)nc1Cl [Compound F13, N1-(3-Chloro-1-(pyridin-3-yl)-1H-pyrazol-4-yl)-N1-ethyl-N4-((5-methylfuran-2-yl)methyl)succinamide] | 0 to 80 | 80 to 100 |  |  |
| CCN(C(=O)CC1CN(Cc2ccc(C(F)(F)F)cc2)C1=O)c1cn(-c2cccnc2)nc1Cl (stereo not drawn) [Compound F14] | 0 to 80 | 80 to 100 |  |  |
| CCN(C(=O)CCC(=O)NCC1CCCCC1)c1cn(-c2cccnc2)nc1Cl [Compound F15, N1-(3-Chloro-1-(pyridin-3-yl)-1H-pyrazol-4-yl)-N4-(cyclohexylmethyl)-N1-ethylsuccinamide] | 0 to 80 | 80 to 100 |  |  |
| CCN(C(=O)C(C)OC(=O)N(C)OC)c1cn(-c2cccnc2)nc1Cl (stereo not drawn) [Compound F16, 1-((3-Chloro-1-(pyridin-3-yl)-1H-pyrazol-4-yl)(ethyl)amino)-1-oxopropan-2-yl methoxy(methyl) carbamate] | 80 to 100 | 80 to 100 |  |  |
| CCN(C(=O)CCN(CC(F)F)C(=O)n1ccnc1)c1cn(-c2cccnc2)nc1Cl [Compound F17, N-(3-((3-chloro-1-(pyridin-3-yl)-1H-pyrazol-4-yl)(ethyl)amino)-3-oxopropyl)-N-(2,2-difluoroethyl)-1H-imidazole-1-carboxamide] |  |  | 0 to 80 | 80 to 100 |
| O=C(CCC(=O)N(CC1CC1)c1cn(-c2cccnc2)nc1Cl)N1CCCCCC1 [Compound F18, 4-(Azepan-1-yl)-N-(3-chloro-1-(pyridin-3-yl)-1H-pyrazol-4-yl)-N-(cyclopropylmethyl)-4-oxobutanamide] | 0 to 80 | 80 to 100 |  |  |
| CCN(C(=O)CCNC(=O)OC(C)(C)C)c1cn(-c2cccnc2)nc1Cl [Compound F19, tert-Butyl (3-((3-chloro-1-(pyridin-3-yl)-1H-pyrazol-4-yl)(ethyl)amino)-3-oxopropyl)carbamate] | 80 to 100 | 80 to 100 |  |  |
| CCN(C(=O)CCC(=O)N1CCCCC1)c1cn(-c2cccnc2)nc1Cl [Compound F21, N-(3-Chloro-1-(pyridin-3-yl)-1H-pyrazol-4-yl)-N-ethyl-4-oxo-4-(piperidin-1-yl)butanamide] | 0 to 80 | 80 to 100 |  |  |
| CN(C(=O)CN1CCCCCC1=O)c1cn(-c2cccnc2)nc1Cl [Compound F22, N-(3-Chloro-1-(pyridin-3-yl)-1H-pyrazol-4-yl)-N-methyl-2-(2-oxoazepan-1-yl)acetamide] | 0 to 80 | 80 to 100 |  |  |
| C#CCN(C(=O)CN(C)C(=O)OC(C)(C)C)c1cn(-c2cccnc2)nc1Cl [Compound F23, tert-Butyl (2-((3-chloro-1-(pyridin-3-yl)-1H-pyrazol-4-yl)(prop-2-yn-1-yl)amino)-2-oxoethyl)(methyl) carbamate] |  |  | 0 to 80 | 80 to 100 |
| CC(=O)N[C@H]1C=C[C@@H](C(=O)N(C)c2cn(-c3cccnc3)nc2Cl)C1 [Compound F24, (1S,4R)-4-acetamido-N-(3-chloro-1-(pyridin-3-yl)-1H-pyrazol-4-yl)-N-methyl-cyclopent-2-enecarboxamide] | 80 to 100 | 80 to 100 |  |  |
| CN(C)C(=O)CCC(=O)N(C)c1cn(-c2cccnc2)nc1Cl [Compound F25, N1-(3-Chloro-1-(pyridin-3-yl)-1H-pyrazol-4-yl)-N1,N4,N4-trimethyl succinimide] | 0 to 80 | 80 to 100 |  |  |
| CCN(C(=O)C1CN(C(=O)OC(C)(C)C)C1)c1cn(-c2cccnc2)nc1Cl [Compound F26] | 80 to 100 | 0 to 80 |  |  |
| CN(C(=O)CCC(=O)N1CCCCCC1)c1cn(-c2cccnc2)nc1Cl [Compound F27, 4-(Azepan-1-yl)-N-(3-chloro-1-(pyridin-3-yl)-1H-pyrazol-4-yl)-N-methyl-4-oxobutanamide] | 0 to 80 | 80 to 100 |  |  |
